Patent EP0006452A1, “Hypoglycemic phenylpropynylamino benzoic acids, their salts, pharmaceutical compositions containing said compounds and their application” (THE DOW CHEMICAL COMPANY, priority 1978, dated 1980)

System: alanine-induced hyperglycemic mice
Test: Hypoglycemic activity in alanine-induced hyperglycemic mice (serum glucose lowering)
Assay type: in vivo
Details: for percent lowering of serum glucose as compared to controls: fasted male Swiss-Webster mice, 10 m moles/kg L-alanine i.p. 15 min later, serum glucose 60 min after compound, 100% = lowering to fasting glucose level; for ED50: Mus musculus, ip, 1 h, intraperitoneal, lowering of serum glucose in alanine-induced hyperglycemic fasted male Swiss-Webster mice, read-out: ED50 (effective dose)
Description: Alanine is the most glucogenic of the amino acids and also stimulates gluconeogensis in normal animals. Animals suffering from diabetes show an exaggerated hyperglycemic response to a protein or amino acid meal, therefore the hyperglycemic state induced by alanine closely parallels the response of a diabetic mammal.
Fifteen minutes later the same mice were injected intraperitoneally with 10 m moles/kg body weight of L-alanine. […] The control consisted of both fasted mice and mice injected with alanine only. The results are expressed as percent lowering of serum glucose from the alanine induced hyperglycemic level to the fasted control glucose level, i.e. lowering to the fasting glucose level is 100% lowering.

[1] = Dosage Level 7.5 mg/kg intraperitoneal
[2] = Dosage Level 15 mg/kg intraperitoneal
[3] = Dosage Level 30 mg/kg intraperitoneal
[4] = Dosage Level 60 mg/kg intraperitoneal

Compound | percent lowering of serum glucose as compared to controls [1] | percent lowering of serum glucose as compared to controls [2] | percent lowering of serum glucose as compared to controls [3] | percent lowering of serum glucose as compared to controls [4] | ED50 | hypoglycemic activity (in words) (summary of Table I, lowering the amount of glucose in the serum of the test animals)
O=C(O)c1ccc(NCC#Cc2ccccc2)cc1 [Example 1, 4-((3-phenyl-2-propynyl)-amino)benzoic acid] | 36% | 79% | 98% | 132% | 8 mg/kg | –
O=C([O-])c1ccc(NCC#Cc2ccccc2)cc1.[Na+] [Example 2, 4-((3-phenyl-2-propynyl)-amino)benzoic acid-sodium salt] | 44% | 69% | 114% | 139% | – | most active
O=C(O)c1ccc(NCC#Cc2ccc(F)cc2)cc1 [Example 3, 4((3-(4-fluoro)phenyl-2-propynyl)amino)benzoic acid] | 2% | 66% | 91% | 172% | 18 mg/kg | –
O=C(O)c1ccc(NCC#Cc2ccc(Cl)cc2)cc1 [Example 4, 4-((3-(4-Chloro)phenyl-2-propynyl)amino)-ben zoic acid] | – | – | – | 39% | – | –
Cc1ccc(C#CCNc2ccc(C(=O)O)cc2)cc1 [Example 5, 4-((3-(4-Methyl)phenyl-2-propynyl)amino)benzoic acid] | 9% | 15% | 118% | 76% | 21 mg/kg | –
